Patent publication US6420586B1 (priority 2000, dated 2002)

Columns and labels:
Format in all cases: biochemical
[1] = system: Herpes Simplex Virus Protease
[2] = biological target: T1, HIV protease (Human immunodeficiency virus type 1 group M subtype B, UniProt P04585)
T1 construct: a key virally encoded protease enzyme of the pol gene

[3] = biological target: T2, human cathepsin K (Homo sapiens, UniProt P43235); experiment: Inhibition of human cathepsin K (fluorescence peptide assay); conditions: compound concentration 106 μmolar; pH 5.5, 10 μmolar peptide
T2 sequence (P43235 115-329): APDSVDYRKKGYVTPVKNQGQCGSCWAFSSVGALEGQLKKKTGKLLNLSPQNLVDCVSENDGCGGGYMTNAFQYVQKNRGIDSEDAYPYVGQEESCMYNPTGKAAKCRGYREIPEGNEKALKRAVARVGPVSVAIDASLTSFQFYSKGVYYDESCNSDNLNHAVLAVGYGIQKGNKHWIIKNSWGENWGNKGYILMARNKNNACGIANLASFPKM
Protocol: The inhibition of human cathepsin K by the compound shown in Scheme N (106 μmolar) was determined. The peptides utilized were chromophoric Z-Phe-Arg-pNA*HCl and fluorogenic Z-Phe-Arg-AMC (each available from BACHEM Bioscience, Inc.). Stock solutions were prepared with 100% dimethylsulfoxide (DMSO) and stored at −20° C.
The final assay conditions were 100 mM NaOAc, pH of 5.5, 10 mM (R,R)-dithiothreitol (DTT), 10% DMSO, 120 mM NaCl, 10 μmolar of the peptide, and 12.5-0.012 μmolar inhibitor in twofold serial dilutions from 20× stocks in 100% DMSO. The enzyme working solution was a 1:3000 dilution of […] human cathepsin K into 100 mM of NaOAc, pH of 5.5, 10 mM DTT, 1.2 M NaCl.
Serial dilutions were performed in 100% DMSO. Columns 2-12 of an intermediate plate were filled with […] of 100% DMSO and column 1 was filled with […]. Next, […] of a 10 mM solution was added to column 1. A twofold serial dilution was prepared in columns 1-11 of the intermediate plate by sequential transfer of […] of the contents of each well in a column to the corresponding well of the next column, with mixing between each transfer. […] The fluorescence was monitored every 6 minutes for 72 minutes using a CytoFluor Series 4000 PerSeptive Biosystems multi-well fluorescence plate reader with the following settings: gain=50; 20 reads/well; 32° C.; lex=360±20 nm; and lem=440±120 nm.

## COP1(=O)N(Cc2ccccc2)CC=CCN1Cc1ccccc1 [Scheme K]
[1]
  inhibition of the protease: 25.5%

## C=CCOP1(=O)OCC=CCN1[C@H](C(=O)OC)C(C)C (stereo partly drawn) [Scheme L]
[1]
  inhibition of the protease: 34.7%

## COP1(=O)N[C@@H](C(C)C)C=C[C@H](C(C)C)O1 (stereo partly drawn) [Scheme M]
[1]
  inhibition of the protease: 33.5%

## CC(C)(C)OC(=O)NC(Cc1ccccc1)CN1CC=CCN(C[C@H](Cc2ccccc2)NC(=O)OC(C)(C)C)P1(=O)Cl (stereo partly drawn) [Scheme N]
[1]
  inhibition of the protease: 44.4%
[2]
  inhibition of the protease: 23%
[3]
  inhibition of human cathepsin K: 34%
